# Source: ChEMBL document CHEMBL3046400, “Variation in the laboratory susceptibility of turf-infesting white grubs (Coleoptera: Scarabaeidae) to biological, biorational and chemical control products” (2010)
# Experiments:
# Assay type in all cases: functional
# Amphimallon majale [1] = test: Insecticidal activity against Amphimallon majalis (European chafer) assessed as mortality after 20 days
# Popillia japonica [2] = test: Insecticidal activity against Popillia japonica assessed as mortality after 30 days
# Amphimallon majale [3] = test: Insecticidal activity against Amphimallon majalis (European chafer) assessed as mortality after 10 days
# Amphimallon majale [4] = test: Insecticidal activity against Amphimallon majalis (European chafer) assessed as mortality after 30 days
# Popillia japonica [5] = test: Insecticidal activity against Popillia japonica assessed as mortality after 20 days
# Popillia japonica [6] = test: Insecticidal activity against Popillia japonica assessed as mortality after 10 days
# Anomala orientalis [7] = test: Insecticidal activity against Anomala orientalis assessed as mortality after 20 days; set-up: concentration or dose not given beside the values
# Anomala orientalis [8] = test: Insecticidal activity against Anomala orientalis assessed as mortality after 30 days; set-up: concentration or dose not given beside the values
# Maladera castanea [9] = test: Insecticidal activity against Maladera castanea assessed as mortality after 20 days; set-up: concentration or dose not given beside the values
# Anomala orientalis [10] = test: Insecticidal activity against Anomala orientalis assessed as mortality after 10 days; set-up: concentration or dose not given beside the values
# Maladera castanea [11] = test: Insecticidal activity against Maladera castanea assessed as mortality after 30 days; set-up: concentration or dose not given beside the values
# Maladera castanea [12] = test: Insecticidal activity against Maladera castanea assessed as mortality after 10 days; set-up: concentration or dose not given beside the values
SMILES,Activity (Amphimallon majale [1]) [%],Activity (Popillia japonica [2]) [%],Activity (Amphimallon majale [3]) [%],Activity (Amphimallon majale [4]) [%],Activity (Popillia japonica [5]) [%],Activity (Popillia japonica [6]) [%],Activity (Anomala orientalis [7]) [%],Activity (Anomala orientalis [8]) [%],Activity (Maladera castanea [9]) [%],Activity (Anomala orientalis [10]) [%],Activity (Maladera castanea [11]) [%],Activity (Maladera castanea [12]) [%]
Cc1c(COC(=O)[C@@H]2[C@H](/C=C(\Cl)C(F)(F)F)C2(C)C)cccc1-c1ccccc1 [BIFENTHRIN],0,86.7,0,0,59.3,36.9,–,–,–,–,–,–
CN/C(=N\[N+](=O)[O-])NCc1cnc(Cl)s1 [CLOTHIANIDINE],22.6,32.8,19.8,44.3,22.9,4,89.3,98.6,75.7,56,100,39.8
CC[C@H]1CCC[C@H](O[C@H]2CC[C@H](N(C)C)[C@@H](C)O2)[C@@H](C)C(=O)C2=C[C@@H]3[C@@H](C=C(C)[C@@H]4C[C@@H](O[C@@H]5O[C@@H](C)[C@H](OC)[C@@H](OC)[C@H]5OC)C[C@@H]34)[C@@H]2CC(=O)O1.CC[C@H]1CCC[C@H](O[C@H]2CC[C@H](N(C)C)[C@@H](C)O2)[C@@H](C)C(=O)C2=C[C@@H]3[C@@H](C=C[C@@H]4C[C@@H](O[C@@H]5O[C@@H](C)[C@H](OC)[C@@H](OC)[C@H]5OC)C[C@@H]34)[C@@H]2CC(=O)O1,11.8,58.9,17.1,26.5,33.5,7.3,31.4,59,20.6,3.2,79.6,6.6
O=[N+]([O-])/N=C1\NCCN1Cc1ccc(Cl)nc1 [IMIDACLOPRID],18.3,41.7,13,34.2,22.6,9.1,30.1,68.3,12.2,9.7,38.8,9.2
C/C=C(\C)C(=O)O[C@H]1C[C@@H](OC(C)=O)[C@@]2(C(=O)OC)CO[C@H]3[C@@H](O)[C@@](C)([C@]45O[C@@]4(C)[C@@H]4C[C@H]5O[C@@H]5OC=C[C@@]54O)[C@H]4[C@]1(CO[C@]4(O)C(=O)OC)[C@@H]32 [AZADIRACHTIN A],1.1,87.2,4,15.8,64.1,74.3,–,–,–,–,–,–
CN1COCN(Cc2cnc(Cl)s2)/C1=N\[N+](=O)[O-] [THIAMETHOXAM],16.4,91,13.1,35.1,74.9,48.1,57.5,78.7,39.1,27,72.8,28.2
COP(=O)(OC)C(O)C(Cl)(Cl)Cl (stereo not given) [TRICHLORFON],2.6,94.8,6,7.4,92.6,71.3,95.1,96,97.7,95.6,100,70.3
CCOP(=S)(OCC)Oc1nc(Cl)c(Cl)cc1Cl [CHLORPYRIFOS],89,100,43,100,84.4,62.7,94.8,98.6,89.6,87.9,92.4,65.5
CN/C(=N/CC1CCOC1)N[N+](=O)[O-] (stereo not given) [DINOTEFURAN],2.2,86.2,0,8.9,69.3,54.4,–,–,–,–,–,–
